PubChem BioAssay (NCI)
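How tested: cells in 96-well plates exposed to compound for 48 hours at five concentrations. At the GI50, growth is halved. Definition used: TGI = concentration required for complete inhibition of growth.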

Tests used:
Assay in all cases: NCI tumour cell line growth inhibition, 48 h
SF-295 CNS = test system: SF-295 CNS
BT-549 breast = test system: BT-549 breast
HOP-92 NSCLC = test system: HOP-92 NSCLC
HCT-116 colon = test system: HCT-116 colon
DU-145 prostate = test system: DU-145 prostate
CCRF-CEM leukemia = test system: CCRF-CEM leukemia
ACHN renal = test system: ACHN renal
SN12C renal = test system: SN12C renal
MALME-3M melanoma = test system: MALME-3M melanoma
OVCAR-3 ovarian = test system: OVCAR-3 ovarian
SF-539 CNS = test system: SF-539 CNS
PC-3 prostate = test system: PC-3 prostate
HCT-15 colon = test system: HCT-15 colon
HOP-62 NSCLC = test system: HOP-62 NSCLC
KM12 colon = test system: KM12 colon
UACC-257 melanoma = test system: UACC-257 melanoma
NCI-H226 lung = test system: NCI-H226 lung
MDA-MB-435 = test system: MDA-MB-435
LOX IMVI melanoma = test system: LOX IMVI melanoma
NCI-H460 lung = test system: NCI-H460 lung
MCF7 breast = test system: MCF7 breast
NCI-H23 lung = test system: NCI-H23 lung
HS 578T breast = test system: HS 578T breast
K-562 leukemia = test system: K-562 leukemia
COLO 205 colon = test system: COLO 205 colon
SR leukemia = test system: SR leukemia
NCI-H522 lung = test system: NCI-H522 lung
SF-268 CNS = test system: SF-268 CNS
NCI/ADR-RES ovarian = test system: NCI/ADR-RES ovarian
A498 renal = test system: A498 renal
786-0 renal = test system: 786-0 renal
TK-10 renal = test system: TK-10 renal
HCC-2998 colon = test system: HCC-2998 colon
T-47D breast = test system: T-47D breast
SK-MEL-5 melanoma = test system: SK-MEL-5 melanoma
RPMI-8226 leukemia = test system: RPMI-8226 leukemia
U251 CNS = test system: U251 CNS
M14 melanoma = test system: M14 melanoma
SW-620 colon = test system: SW-620 colon
MOLT-4 leukemia = test system: MOLT-4 leukemia
OVCAR-5 ovarian = test system: OVCAR-5 ovarian
EKVX NSCLC = test system: EKVX NSCLC
RXF 393 renal = test system: RXF 393 renal
UACC-62 melanoma = test system: UACC-62 melanoma
MDA-MB-231 breast = test system: MDA-MB-231 breast
SK-MEL-28 melanoma = test system: SK-MEL-28 melanoma
SK-OV-3 ovarian = test system: SK-OV-3 ovarian
HL-60(TB) leukemia = test system: HL-60(TB) leukemia
IGROV1 ovarian = test system: IGROV1 ovarian
SNB-19 CNS = test system: SNB-19 CNS
UO-31 renal = test system: UO-31 renal
OVCAR-4 ovarian = test system: OVCAR-4 ovarian
A549 NSCLC = test system: A549 NSCLC
OVCAR-8 ovarian = test system: OVCAR-8 ovarian
HT29 colon = test system: HT29 colon
SK-MEL-2 melanoma = test system: SK-MEL-2 melanoma
SNB-75 CNS = test system: SNB-75 CNS
CAKI-1 renal = test system: CAKI-1 renal

CC(C)(C)OC(=O)NCC(C#N)CNC(=O)OC(C)(C)C
TGI (SF-295 CNS): > 100 µM | TGI (BT-549 breast): > 100 µM | TGI (HOP-92 NSCLC): > 100 µM | TGI (HCT-116 colon): > 100 µM | TGI (DU-145 prostate): > 100 µM | TGI (CCRF-CEM leukemia): > 100 µM | TGI (ACHN renal): > 100 µM | TGI (SN12C renal): > 100 µM | TGI (MALME-3M melanoma): > 100 µM | TGI (OVCAR-3 ovarian): > 100 µM | TGI (SF-539 CNS): > 100 µM | TGI (PC-3 prostate): > 100 µM | TGI (HCT-15 colon): > 100 µM | TGI (HOP-62 NSCLC): > 100 µM | TGI (KM12 colon): > 100 µM | TGI (UACC-257 melanoma): > 100 µM | TGI (NCI-H226 lung): > 100 µM | TGI (MDA-MB-435): > 100 µM | TGI (LOX IMVI melanoma): > 100 µM | TGI (NCI-H460 lung): > 100 µM | TGI (MCF7 breast): > 100 µM | TGI (NCI-H23 lung): > 100 µM | TGI (HS 578T breast): > 100 µM | TGI (K-562 leukemia): > 100 µM | TGI (COLO 205 colon): > 100 µM | TGI (SR leukemia): > 100 µM | TGI (NCI-H522 lung): > 100 µM | TGI (SF-268 CNS): > 100 µM | TGI (NCI/ADR-RES ovarian): > 100 µM | TGI (A498 renal): > 100 µM | TGI (786-0 renal): > 100 µM | TGI (TK-10 renal): > 100 µM | TGI (HCC-2998 colon): > 100 µM | TGI (T-47D breast): > 100 µM | TGI (SK-MEL-5 melanoma): > 100 µM | TGI (RPMI-8226 leukemia): > 100 µM | TGI (U251 CNS): > 100 µM | TGI (M14 melanoma): > 100 µM | TGI (SW-620 colon): > 100 µM | TGI (MOLT-4 leukemia): > 100 µM | TGI (OVCAR-5 ovarian): > 100 µM | TGI (EKVX NSCLC): > 100 µM | TGI (RXF 393 renal): > 100 µM | TGI (UACC-62 melanoma): > 100 µM | TGI (MDA-MB-231 breast): > 100 µM | TGI (SK-MEL-28 melanoma): > 100 µM | TGI (SK-OV-3 ovarian): > 100 µM | TGI (HL-60(TB) leukemia): > 100 µM | TGI (IGROV1 ovarian): > 100 µM | TGI (SNB-19 CNS): > 100 µM | TGI (UO-31 renal): > 100 µM | TGI (OVCAR-4 ovarian): > 100 µM | TGI (A549 NSCLC): > 100 µM | TGI (OVCAR-8 ovarian): > 100 µM

COc1ccc(C(=O)N2c3ccccc3Sc3ccccc32)c(F)c1
GI50 (SF-295 CNS): 0.395 µM | TGI (SF-295 CNS): > 100 µM | GI50 (BT-549 breast): 0.676 µM | TGI (BT-549 breast): > 100 µM | GI50 (HOP-92 NSCLC): 0.238 µM | TGI (HOP-92 NSCLC): 59.7 µM | GI50 (HCT-116 colon): 0.393 µM | TGI (HCT-116 colon): > 100 µM | GI50 (DU-145 prostate): 1.4 µM | TGI (DU-145 prostate): > 100 µM | GI50 (CCRF-CEM leukemia): 0.522 µM | TGI (CCRF-CEM leukemia): > 100 µM | GI50 (ACHN renal): 0.831 µM | TGI (ACHN renal): > 100 µM | GI50 (SN12C renal): 1.94 µM | TGI (SN12C renal): > 100 µM | GI50 (MALME-3M melanoma): 16.2 µM | TGI (MALME-3M melanoma): > 100 µM | GI50 (OVCAR-3 ovarian): 0.418 µM | TGI (OVCAR-3 ovarian): > 100 µM | GI50 (SF-539 CNS): 0.409 µM | TGI (SF-539 CNS): 3.36 µM | GI50 (PC-3 prostate): 0.407 µM | TGI (PC-3 prostate): > 100 µM | GI50 (HCT-15 colon): 0.419 µM | TGI (HCT-15 colon): > 100 µM | GI50 (HOP-62 NSCLC): 0.968 µM | TGI (HOP-62 NSCLC): > 100 µM | GI50 (HT29 colon): 0.38 µM | TGI (HT29 colon): 43.3 µM | GI50 (KM12 colon): 0.489 µM | TGI (KM12 colon): > 100 µM | GI50 (UACC-257 melanoma): > 100 µM | TGI (UACC-257 melanoma): > 100 µM | GI50 (NCI-H226 lung): 2.35 µM | TGI (NCI-H226 lung): > 100 µM | GI50 (LOX IMVI melanoma): 0.726 µM | TGI (LOX IMVI melanoma): > 100 µM | GI50 (NCI-H460 lung): 0.485 µM | TGI (NCI-H460 lung): > 100 µM | GI50 (MCF7 breast): 0.405 µM | TGI (MCF7 breast): > 100 µM | GI50 (NCI-H23 lung): 3.42 µM | TGI (NCI-H23 lung): > 100 µM | GI50 (HS 578T breast): 0.377 µM | TGI (HS 578T breast): > 100 µM | GI50 (K-562 leukemia): 0.442 µM | TGI (K-562 leukemia): > 100 µM | GI50 (COLO 205 colon): 0.445 µM | TGI (COLO 205 colon): 26.8 µM | GI50 (SR leukemia): 0.38 µM | TGI (SR leukemia): > 100 µM | GI50 (NCI-H522 lung): 0.403 µM | TGI (NCI-H522 lung): > 100 µM | GI50 (SK-MEL-2 melanoma): 0.531 µM | TGI (SK-MEL-2 melanoma): > 100 µM | GI50 (SF-268 CNS): 10.7 µM | TGI (SF-268 CNS): > 100 µM | GI50 (NCI/ADR-RES ovarian): 0.517 µM | TGI (NCI/ADR-RES ovarian): > 100 µM | GI50 (A498 renal): 0.33 µM | TGI (A498 renal): 8.68 µM | GI50 (786-0 renal): 0.675 µM | TGI (786-0 renal): > 100 µM | GI50 (TK-10 renal): 10.4 µM | TGI (TK-10 renal): > 100 µM | GI50 (HCC-2998 colon): 2.38 µM | TGI (HCC-2998 colon): > 100 µM | GI50 (T-47D breast): 0.639 µM | TGI (T-47D breast): > 100 µM | GI50 (SK-MEL-5 melanoma): 0.759 µM | TGI (SK-MEL-5 melanoma): 22.5 µM | GI50 (RPMI-8226 leukemia): 0.922 µM | TGI (RPMI-8226 leukemia): 63 µM | GI50 (U251 CNS): 0.615 µM | TGI (U251 CNS): > 100 µM | GI50 (SNB-75 CNS): 0.288 µM | TGI (SNB-75 CNS): 34 µM | GI50 (M14 melanoma): 0.371 µM | TGI (M14 melanoma): > 100 µM | GI50 (CAKI-1 renal): 0.584 µM | TGI (CAKI-1 renal): > 100 µM | GI50 (SW-620 colon): 0.458 µM | TGI (SW-620 colon): > 100 µM | GI50 (MOLT-4 leukemia): 0.715 µM | TGI (MOLT-4 leukemia): > 100 µM | GI50 (OVCAR-5 ovarian): 3.66 µM | TGI (OVCAR-5 ovarian): > 100 µM | GI50 (EKVX NSCLC): 2.72 µM | TGI (EKVX NSCLC): > 100 µM | GI50 (RXF 393 renal): 0.764 µM | TGI (RXF 393 renal): > 100 µM | GI50 (UACC-62 melanoma): 0.382 µM | TGI (UACC-62 melanoma): > 100 µM | GI50 (MDA-MB-231 breast): 3.52 µM | TGI (MDA-MB-231 breast): > 100 µM | GI50 (SK-MEL-28 melanoma): 1.64 µM | TGI (SK-MEL-28 melanoma): > 100 µM | GI50 (SK-OV-3 ovarian): 4.13 µM | TGI (SK-OV-3 ovarian): > 100 µM | GI50 (HL-60(TB) leukemia): 0.325 µM | TGI (HL-60(TB) leukemia): > 100 µM | GI50 (IGROV1 ovarian): 0.808 µM | TGI (IGROV1 ovarian): > 100 µM | GI50 (SNB-19 CNS): 0.571 µM | TGI (SNB-19 CNS): > 100 µM | GI50 (UO-31 renal): 3.78 µM | TGI (UO-31 renal): > 100 µM | GI50 (OVCAR-4 ovarian): 2.01 µM | TGI (OVCAR-4 ovarian): > 100 µM | GI50 (A549 NSCLC): 1.19 µM | TGI (A549 NSCLC): > 100 µM | GI50 (OVCAR-8 ovarian): 2.2 µM | TGI (OVCAR-8 ovarian): > 100 µM
